How the values were obtained:
Assay type in all cases: cell-based
[1] = system: HeLa cells expressing mt-Keima and YFP-Parkin (HeLa MKYP); assay: Human mt-Keima Mitophagy Assay; settings: 16 hrs compound, then 1 μM FCCP/oligomycin for 6 hours, read-out: Mitophagy induction EC50
Method: (§1) HeLa cells expressing mt-Keima and YFP-Parkin (HeLa MKYP) were plated at 10,000 cells/well in 96 well plates along with Mitokinin compounds at various concentrations. Following 16 hrs of incubation, cells were treated with 1 μM FCCP/oligomycin for 6 hours, then analyzed via FACS for the presence of mitochondria in lysosomes (as determined by an emissions spectrum shift from the pH-sensitive mt-Keima tag). Additionally, cells treated with 25 μM Mitokinin compound but not treated with FCCP/oligomycin were analyzed for cytotoxicity.
The above compound was prepared using the synthetic methods detailed herein, and evaluated for PINK1 activity. Additional exemplary PINK1 modulators for which the synthetic methods described herein can be used are described in WO 2021/168446

[2] = Cytotoxicity in the mt-Keima assay cells (FACS, DAPI); settings: human, hela mkyp cells
Method: as §1

[3] = In Vitro Mitotoxicity (glucose/galactose) Assay; settings: human, skov3 cells
Method: Briefly, SKOV3 cells (ATCC HTB-77) were plated in DMEM (Corning 10-013-CV) medium containing 25 mM glucose or DMEM with no glucose (Gibco 11966-025) supplemented with 10 mM galactose at 9,000 cells/well in 96 well plates (Corning costar 3610). 24 hrs later, compounds, in DMSO, were added at various concentrations to a final 0.1% DMSO for all wells. Following 20 hours of incubation with compound, all wells had their growth medium replaced with DMEM containing 25 mM of glucose followed by the addition of Promega CellTiter-Glo® reagent as per manufacturer's instructions. After a 15 minute incubation cellular ATP levels were read out using a Promega GloMax® DiscoverMicroplate Reader.
The ratio of relative CellTiter-Glo values from cells grown in galactose to cells grown in glucose was determined (gal/glc ratio). The gal/glc ratio vs concentration is then graphed, and non-linear regression is used to find the highest concentration of MTK compound at which gal/glc>0.80 (the “highest mito-safe dose”, or IC20). The Mito-Safety Index in Table 2 is equal to the highest mito-safe dose divided by the mt-Keima EC50 dose.

EC50 [1]: 130 nM
SMILES: C[C@@H]1CN([C@H]2COc3cc(F)ccc3[C@@H]2Nc2ncnc3[nH]c(C(F)(F)F)cc23)CCO1
MNTC ([2]; no FO, safe means DAPI + < 20%, read-out: Highest safe dose (cytotoxicity; no FO; safe means DAPI+ < 20%)): 21.9 µM | cytotoxicity ([2]; with 1 μM FCCP/oligomycin (FO), read-out: Max % death with 1 μM FO): 29.6% | selectivity ratio ([3]; highest mito-safe dose divided by the mt-Keima EC50 dose, read-out: Mito-Safety Index (highest safe dose/EC50)): 135 | IC20 at 20 h ([3]; mitotox or cytotox, highest concentration at which gal/glc > 0.80 (IC20), 20 hours, read-out: Highest safe dose (mitotox or cytotox)): 17.3 µM

From US20260356839A1, “DIRECT SYNTHESIS OF N-(3-SUBSTITUTED-CHROMAN-4-YL)-7H- PYRROLO[2,3-D]PYRIMIDIN-4-AMINES AND DERIVATIVES THEREOF” (MITOKININ, INC., priority 2022, published 2026)
